This is an account of results in PMC8197855, “Peptide/β-Peptoid Hybrids with Activity against Vancomycin-Resistant Enterococci: Influence of Hydrophobicity and Structural Features on Antibacterial and Hemolytic Properties” (International Journal of Molecular Sciences, 2021).

Data set [1] concerns E. faecalis ATCC 29212. Nature of the data set: Broth checkerboard assay with conventional antibiotics. The format is cell-based, Enterococcus faecalis. Conditions: antibiotic alone (-); BHI broth. As to the method:
(§1) The strain culture preparation and final volume were the same as in the MIC assay. […] The plates were incubated for 24 h at 37 °C without shaking. […] All experiments were performed in two biological replicates.
(§2) To evaluate the effect of the combinations, the fractional inhibitory concentration index (FICI) was calculated for each combination according to:ΣFIC = FICA + FICB = (CA/MICA) + (CB/MICB)
(§3) The drug interaction was scored as follows: synergy—FICI ≤ 0.5; no interaction—FICI > 0.5–4; antagonism—FICI > 4 [40].

Data set [2] deals with E. faecium ATCC 19434. Described as above. The format is cell-based, Enterococcus faecium. Conditions: antibiotic alone (-); BHI broth. As to the method:
as §1, §2, §3

Another data set deals with E. faecalis 38262. Nature of the data set: microbe, parasite or virus in culture. Format: cell-based, Enterococcus faecalis. As to the method:
(§4) Overnight cultures of the enterococcal isolates were diluted in physiological saline (0.9% NaCl) to reach a turbidity of 0.5 McFarland units (Sensititre® nephelometer and the Sensititre® McFarland Standard). Bacterial suspensions were adjusted to 5 × 10^5 CFU/mL in MHB II or BHI broth containing two-fold dilutions of peptidomimetics or conventional antibiotics in a final volume of 100 µL. The plates were incubated for 24 h at 37 °C without shaking. […] All experiments were performed in three biological replicates.

Another data set relates to E. faecalis 39002. Nature of the data set: microbe, parasite or virus in culture. The format is cell-based, Enterococcus faecalis. The following applies: 39002, 24 h. The procedure: as §4
Data set [3] concerns E. faecium ATCC 19434. Nature of the data set: microbe, parasite or virus in culture. Format: cell-based, Enterococcus faecium. Conditions: ATCC 19434, 24 h. As to the method:
(§5) Overnight cultures of the enterococcal isolates were diluted in physiological saline (0.9% NaCl) to reach a turbidity of 0.5 McFarland units (Sensititre® nephelometer and the Sensititre® McFarland Standard). Bacterial suspensions were adjusted to 5 × 10^5 CFU/mL in MHB II or BHI broth containing two-fold dilutions of peptidomimetics or conventional antibiotics in a final volume of 100 µL. The plates were incubated for 24 h at 37 °C without shaking. […] All experiments were performed in three biological replicates. […]

Data set [4] deals with E. faecalis ATCC 29212. Nature of the data set: microbe, parasite or virus in culture. Conditions: ATCC 29212, 24 h. Format: cell-based, Enterococcus faecalis. As to the method:
as §5

Data set [5] relates to HepG2 cell line ATCC HB-8065. Nature of the data set: Effect on HepG2 cell viability (MTT assay). Format: cell-based, human. The following applies: 48 h. As to the method: The effect of peptidomimetics on mammalian cell viability was determined on the HepG2 cell line ATCC HB-8065. In brief, HepG2 cells were seeded into flat-bottom 96-well plates at a concentration of 5000 cells per well. The cells were incubated for 24 h in a humidified incubator (5% CO2, 37 °C). Subsequently, the medium was removed, and the cells were incubated for 48 h in a humidified incubator (5% CO2, 37 °C) with peptidomimetics in serial dilutions. An MTT assay was then performed; in brief, after incubation with the test compounds, the culture medium was removed and fresh medium with 0.2 mg/mL MTT was then added into each well. After incubation (3 h, 37 °C, 5% CO2), the medium with MTT was removed, and 200 μL dimethyl sulfoxide was added at once to each sample. The absorbance of MTT was measured using the spectrophotometer TECAN Infinite M1000 at 540 nm. The relative viability was calculated by using the formula:ODtreated cells × 100/ODcontrol cells
The IC50 values were calculated using the program Graph Pad Prism 5.0. For all compounds, the test range was 10–1280 μg/mL.
A general note: Tetrazolium assays rely on reduction of a dye to a coloured formazan, in cell work by metabolically active cells.

The test system of a further data set is E. faecium D344R. Description: microbe, parasite or virus in culture. Format: cell-based, Enterococcus faecium. Conditions: E. faecium D344R, human clinical isolate; 24 h. As to the method: as §4
The test system of the next data set is E. faecium 1798. Description: microbe, parasite or virus in culture. The format is cell-based, Enterococcus faecium. Conditions: 1798, 24 h. As to the method: as §4
The next data set deals with E. faecium 2961. Nature of the data set: microbe, parasite or virus in culture. The format is cell-based, Enterococcus faecium. Conditions: 2961, 24 h. The procedure: as §4
A further data set relates to E. faecium 3978. Nature of the data set: microbe, parasite or virus in culture. The following applies: 3978, 24 h. The format is cell-based, Enterococcus faecium. The procedure:
as §4

Another data set in a line: Hemolytic activity. The following applies: 37 °C, 1% red blood cell suspension; for hemolysis at 60 min, 400 µg/mL: human, human red blood cells (washed, 1% suspension). The format is cell-based, human. As to the method:
A suspension of hRBCs (Single-donor human red blood cells—washed; catalogue No. IPLA-W3 from Innovative researchTM) was washed three times with PBS buffer and centrifuged for 5 min at 2500 rpm. A two-fold serial dilution of compounds in PBS buffer was prepared. Plates (conical-bottomed 96-well plates) with 3 replicate wells per dilution, containing 1% red blood cell suspension, were prepared and dosed with the test compound to achieve a final concentration of 400 μg/mL in a total volume of 100 μL. The plates were incubated (37 °C) for 60 min with mild agitation, and then the cells were pelleted by centrifugation at 1500 rpm for 5 min. Then, the supernatants (50 μL) were transferred to a fresh 96-well plate, and then the concentration of hemoglobin was detected by measuring the OD at 405 nm. The OD of cells incubated with 1% SDS achieved 100% hemolysis, while the OD of cells incubated with PBS buffer achieved 0% hemolysis. The concentration tested was 400 μg/mL (only average values are stated in Table 3). The percent hemolysis was calculated by using the formula:Hemolysis(%) = 100 × [(Asample − Aneg.control)/(Apos. control − Aneg.control)]

Data set [6] is described as follows: Hydrophobicity by analytical RP-HPLC (% MeCN at peak elution). The format is physicochemical. As to the method:
Water was filtered by using an Evoqua LaboStar PRO TWF Ultra Pure Water System prior to use in high-performance liquid chromatography (HPLC). The retention time for each peptidomimetic was determined by analytical HPLC using a Phenomenex Luna C18(2) HST column (100 mm × 3 mm; particle size: 2.5 μm; pore size: 100 Å) on a Shimadzu Prominence and Shimadzu Nexera system using an aqueous MeCN gradient with 0.1% trifluoroacetic acid (TFA) added (eluent A: 5:95 MeCN–H2O + 0.1% TFA; eluent B: 95:5 MeCN–H2O + 0.1% TFA); a flow rate of 0.5 mL/min was used. For the elution of peptidomimetics, a linear gradient of 0% to 60% B over 10 min was used with UV detection at λ = 220 nm. The percentage MeCN at peak elution was calculated from the retention time (tR) by using the following formula:%MeCN = [0.95 × 0.6 × tR/10 + 0.05 × (1 − 0.6 × tR/10)] × 100%

The structures appear in SMILES notation. ≈ marks a conversion by molar mass, not a printed value. Where only a bound is given, the exact number is not on record here.

As for `CC[C@H]1OC(=O)[C@H](C)[C@@H](O[C@H]2C[C@@](C)(OC)[C@@H](O)[C@H](C)O2)[C@H](C)[C@@H](O[C@@H]2O[C@H](C)C[C@H](N(C)C)[C@H]2O)[C@](C)(O)C[C@@H](C)CN(C)[C@H](C)[C@@H](O)[C@]1(C)O` [Azithromycin, azithromycin], the values for the MIC of antibiotic in the data set on E. faecalis ATCC 29212 [1] and with E. faecium ATCC 19434 [2] were 1 to 2 mg/L and 4 to 8 mg/L, respectively.

With `CNC(C)C1CCC(N)C(OC2C(N)CC(N)C(OC3OCC(C)(O)C(NC)C3O)C2O)O1` (stereo not shown) [Gentamicin, gentamicin], the values for the MIC of antibiotic in the data set on E. faecalis ATCC 29212 [1] and in the data set with E. faecium ATCC 19434 [2] were 16 mg/L and 64 mg/L, respectively.

For the compound `CCCCCCCCCCCC(=O)N[C@@H](CCCCN)C(=O)N(CCC(=O)N[C@@H](CCCCN)C(=O)N(CCC(=O)N[C@@H](CCCCN)C(=O)N(CCC(=O)N[C@@H](CCCCN)C(=O)N(CCC(=O)N[C@@H](CCCCN)C(=O)N(CCC(=O)N[C@@H](CCCCN)C(=O)N(CCC(N)=O)Cc1ccccc1)Cc1ccccc1)Cc1ccccc1)Cc1ccccc1)Cc1ccccc1)Cc1ccccc1` [Compound 11, Lau-[Lys-βNPhe]6-NH2], the Minimum inhibitory concentration with E. faecalis 38262 (38262, 24 h) was 4 to 8 mg/L; in the data set with E. faecalis 39002 it was 4 to 8 mg/L; in the data set on E. faecium ATCC 19434 [3], 4 mg/L (≈ 2.07 µM); in the data set with E. faecalis ATCC 29212 [4] it was 4 mg/L (≈ 2.07 µM); in the data set on E. faecium D344R it was 2 to 4 mg/L; in the data set with E. faecium 1798 it was 2 to 4 mg/L. In addition, the Minimum inhibitory concentration in the data set with E. faecium 2961 and in the data set with E. faecium 3978 was 2 to 4 mg/L each time. Moreover, the “HepG2 IC50” value in [5] was determined as 22 mg/L.

On to `NCCCC[C@H](NC(=O)CCN(Cc1cc(F)c(F)c(F)c1)C(=O)[C@H](CCCCN)NC(=O)CCN(Cc1cc(F)c(F)c(F)c1)C(=O)[C@H](CCCCN)NC(=O)CCN(Cc1cc(F)c(F)c(F)c1)C(=O)[C@H](CCCCN)NC(=O)CCN(Cc1cc(F)c(F)c(F)c1)C(=O)[C@H](CCCCN)NC(=O)CCN(Cc1cc(F)c(F)c(F)c1)C(=O)[C@@H](N)CCCCN)C(=O)N(CCC(N)=O)Cc1cc(F)c(F)c(F)c1` [Compound 8, H-[Lys-βNPhe(F3)]6-NH2], for which the Minimum inhibitory concentration was 8 to 16 mg/L in the data set on E. faecalis 38262 (38262, 24 h); 2 mg/L (≈ 0.963 µM) in the data set on E. faecalis 39002; 2 to 4 mg/L with E. faecium ATCC 19434 [3]; 2 to 4 mg/L in the data set with E. faecalis ATCC 29212 [4]; 2 mg/L (≈ 0.963 µM) in the data set on E. faecium D344R; 2 to 4 mg/L in the data set on E. faecium 1798. Moreover, the Minimum inhibitory concentration in the data set with E. faecium 2961 and in the data set with E. faecium 3978 was 2 mg/L (≈ 0.963 µM) each time. Also, the “HepG2 IC50” value in data set [5] amounted to 27 mg/L. The compound also yielded a hemolysis at 60 min, 400 µg/mL in the data set “Hemolytic activity” of over 20%.

For `NCCCC[C@H](NC(=O)CCN(Cc1ccc(F)cc1)C(=O)[C@H](CCCCN)NC(=O)CCN(Cc1ccc(F)cc1)C(=O)[C@H](CCCCN)NC(=O)CCN(Cc1ccc(F)cc1)C(=O)[C@H](CCCCN)NC(=O)CCN(Cc1ccc(F)cc1)C(=O)[C@H](CCCCN)NC(=O)CCN(Cc1ccc(F)cc1)C(=O)[C@H](CCCCN)NC(=O)CCN(Cc1ccc(F)cc1)C(=O)[C@H](CCCCN)NC(=O)CCN(Cc1ccc(F)cc1)C(=O)[C@@H](N)CCCCN)C(=O)N(CCC(N)=O)Cc1ccc(F)cc1` [Compound 7, H-[Lys-βNPhe(F)]8-NH2], the Minimum inhibitory concentration is over 32 mg/L in the data set with E. faecalis 38262 (E. faecalis 38262, veterinary isolate, 24 h); 8 to 16 mg/L in the data set on E. faecalis 39002; 8 to 16 mg/L in the data set with E. faecium ATCC 19434 [3]; 8 to 16 mg/L in the data set with E. faecalis ATCC 29212 [4]; 4 to 8 mg/L in the data set on E. faecium D344R; 2 to 4 mg/L in the data set on E. faecium 1798. Further, the Minimum inhibitory concentration lay within 2 to 4 mg/L in the data set on E. faecium 2961 and 4 to 8 mg/L with E. faecium 3978. In addition, in data set [5], the “HepG2 IC50” value was found to be 50 mg/L. Moreover, the “Hydrophobicity, Luna C18(2) HST (0–60% B; 10 min), retention converted into % MeCN” value in data set [6] was 41.3 % MeCN. For the same compound, the hemolysis at 60 min, 400 µg/mL in the data set “Hemolytic activity” turned out to be 1.5%.

Regarding `NCCCC[C@H](NC(=O)CCN(CC1CCCCC1)C(=O)[C@H](CCCCN)NC(=O)CCN(CC1CCCCC1)C(=O)[C@H](CCCCN)NC(=O)CCN(CC1CCCCC1)C(=O)[C@H](CCCCN)NC(=O)CCN(CC1CCCCC1)C(=O)[C@H](CCCCN)NC(=O)CCN(CC1CCCCC1)C(=O)[C@H](CCCCN)NC(=O)CCN(CC1CCCCC1)C(=O)[C@H](CCCCN)NC(=O)CCN(CC1CCCCC1)C(=O)[C@@H](N)CCCCN)C(=O)N(CCC(N)=O)CC1CCCCC1` [Compound 9, H-[Lys-βNCha]8-NH2], the Minimum inhibitory concentration was 8 mg/L (≈ 3.36 µM) in the data set on E. faecalis 38262 (38262, 24 h); 4 mg/L (≈ 1.68 µM) with E. faecalis 39002; 2 to 4 mg/L in the data set with E. faecium ATCC 19434 [3]; 2 to 4 mg/L in the data set with E. faecalis ATCC 29212 [4]; 2 to 4 mg/L in the data set with E. faecium 1798; 2 to 4 mg/L in the data set with E. faecium 2961. The compound also yielded a Minimum inhibitory concentration in the data set with E. faecium 3978 of 2 to 4 mg/L. In the data set “Hemolytic activity” (400 µg/mL, 60 min), this compound gave a hemolysis of over 20%.

On to `CC(=O)NC[C@H]1CN(c2ccc(N3CCOCC3)c(F)c2)C(=O)O1` [Linezolid, linezolid], for which the MIC of antibiotic in the data set on E. faecalis ATCC 29212 [1] and with E. faecium ATCC 19434 [2] was 2 mg/L each time.

Turning to `CO[C@H]1/C=C/O[C@@]2(C)Oc3c(C)c(O)c4c(O)c(c(/C=N/N5CCN(C)CC5)c(O)c4c3C2=O)NC(=O)/C(C)=C\C=C\[C@H](C)[C@H](O)[C@@H](C)[C@@H](O)[C@@H](C)[C@H](OC(C)=O)[C@@H]1C` [Rifampicin, rifampicin], the results for the MIC of antibiotic with E. faecalis ATCC 29212 [1] and in the data set with E. faecium ATCC 19434 [2] were 1 mg/L and 8 mg/L, respectively.
